“Also recorded” adds a separate entry of the source.
Key:
p38 MAP kinase = target: T1, p38 MAP kinase (Homo sapiens, UniProt Q16539); assay: p38 MAP kinase phosphorylation assay (similar to Kumar); format: biochemical; conditions: assay similar to the phosphorylation assay (Kumar)
T1 construct: expressed in transfected cells; kinase immunoprecipitated from lysates
Experimental: Alternative assays involving in vitro analysis of potential inhibitors include those where cells (HeLa) transfected with DNA coding for relevant kinases can be activated with substances such as sorbitol, IL-1, TNF, or PMA (phorbol myristate acetate). After immunoprecipitation of cell lysates, equal aliquots of immune complexes of the kinases are pre-incubated for an adequate time with a specific concentration of the potential inhibitor followed by addition of kinase substrate buffer mix containing labeled ATP and GST-ATF2 or MBP. After incubation, kinase reactions are ceased by the addition of SDS loading buffer. Phosphorylated substrate is resolved through SDS-PAGE and visualized and quantitated in a phosphorimager. Both p38 regulation, in terms of phosphorylation, and IC50 values can be determined by quantitation. See, for example Kumar,S., McDonnell, P., Gum, R., Hand, A., Lee, J., and Young, P. (1997) Biochem. Biophys. Res. Commun. 235, 533-538.

ET-1 mRNA in HPBMCs = assay: ET-1 gene expression in HPBMCs, real-time PCR; format: cell-based, human; conditions: 6 hours
Experimental: 5×10^6 HPBMCs were plated in 6-well. After 1 hour medium was removed and cells were treated with vehicle or 1 μM P38 INHIBITOR in RPMI 1640 medium. After 1 hour cells were stimulated with 10% FCS only or 10 μg/ml CRP plus 10% FCS. After 6 hours RNA was extracted from the cells and ET-1 gene expression level was determined by real-time PCR as described in the Experimental section.
Cryopreserved human peripheral blood monocytes (HPBMCs, from Biowitker, Walkersvill, Md.) were thawed and washed twice in RPMI 1640. Cells were plated in tissue culture plates and incubated in 5% CO2 at 37 C. After 1 hr media were removed and cells were treated with various treatments. After 2 to 20 hours conditioned media and/or cell lysates were collected for the analyses of secreted cytokines, protein or mRNA expression. 10 μg/ml of purified human CRP (Calbiochem, San Diego, Calif.) was used in most of the treatments. In some experiments fetal calf serum (FCS from ATCC) was added to a final concentration of 10% together with CRP. In the examples provided herein, including those assessing the effects of p38 antagonism, cells were pre-treated with SD, a p38 small molecule inhibitor (Compound 162 in Table A) for 1 hour prior to CRP treatment as described above. In a parallel series of experiments, the effect of vehicle (DMSO) was tested. For TaqMan analyses of various gene expression cells were lysed in ice-cold RLT lysis buffer (Qiagen, Valencia, Calif.) and the lysates were kept in −80° C. until the analyses. […]
RNA was extracted from the cells using Qiagen RNA extraction kit according to the manufacturer's instruction. The expression of pro-inflammatory genes IL-1β, IL-6, IL-8, TNFα, COX-2, ET-1, TF were assessed by real-time PCR. […]
Real-time RT-PCR was performed in a two-step manner. cDNA synthesis and real-time detection were carried out in a PTC-100™ Thermal Cycler (MJ Research Inc, Waltham, Mass.) and an ABI Prism™ 7700 Sequence Detection System (Applied Biosystems, Foster City, Calif.), respectively. […] Relative quantitation of gene expression was performed using the relative standard curve method. […]

T1 sequence (Q16539 whole entry): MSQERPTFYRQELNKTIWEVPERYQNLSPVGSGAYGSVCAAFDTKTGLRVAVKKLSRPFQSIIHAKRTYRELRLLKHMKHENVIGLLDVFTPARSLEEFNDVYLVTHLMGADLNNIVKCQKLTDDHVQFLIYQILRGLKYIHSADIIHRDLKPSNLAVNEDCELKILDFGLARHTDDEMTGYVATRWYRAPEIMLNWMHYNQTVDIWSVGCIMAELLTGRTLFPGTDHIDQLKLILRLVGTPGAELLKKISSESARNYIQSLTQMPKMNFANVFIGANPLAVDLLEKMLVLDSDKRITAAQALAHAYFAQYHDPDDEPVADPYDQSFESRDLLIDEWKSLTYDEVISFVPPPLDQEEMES

- p38 MAP kinase activity (p38 MAP kinase): exhibit p38 MAP kinase activity
SMILES: C[C@@H]1CN(Cc2ccc(F)cc2)[C@@H](C)CN1C(=O)c1cc2c(C(=O)C(=O)N(C)C)c[nH]c2cc1Cl [Compound 162]
- inhibition of CRP-invoked ET-1 mRNA expression (ET-1 mRNA in HPBMCs; 1 μM SD pre-treatment, listed as SD): almost completely blocked; also recorded: almost completely inhibited
- inhibition of FCS induced ET-1 mRNA (ET-1 mRNA in HPBMCs; 1 μM SD): completely inhibited
